Test results published in patent publication US20240173298A1, “COMPOSITION FOR AMELIORATING OR SUPPRESSING DECLINE OF KIDNEY FUNCTIONS” (SUNTORY HOLDINGS LIMITED, priority 2021, published 2024).

Key:
[1] = Study on evaluation of blood renal function markers in humans (placebo-controlled, randomized, double-blind, parallel-group); assay type: in vivo; conditions: one capsule with 20 mg L-ergothioneine per day, oral, four weeks, week 4 minus pre-testing, versus control food group
Procedure: In order to evaluate the influence of supplements containing ergothioneine on blood renal function marker levels in humans, a placebo-controlled, randomized, double-blind, parallel-group study was conducted on subjects including male and female adults (46 subjects in a test food group; 46 subjects in a control food group; 92 subjects in total). In this study, one capsule containing 20 mg ergothioneine (test food) or one capsule not containing ergothioneine (control food) was fed per day for four weeks. Blood renal function marker levels of each subject were measured for pre-testing before starting the study (before starting ingestion of the test food or control food). After ingestion of the test food or control food for four weeks, blood renal function marker levels of each subject were measured again (testing on week 4). Renal function markers used for measurement were BUN, uric acid, and creatinine. […] For each subject, the BUN level measured at the time of pre-testing was subtracted from the BUN level measured at the time of testing on week 4 ((level measured at the time of testing on week 4)—(level measured at the time of pre-testing)) to determine Δ in level (the amount of change in BUN level) (mg/dL). […] For each subject, the uric acid level measured at the time of pre-testing was subtracted from the uric acid level measured at the time of testing on week 4 ((level measured at the time of testing on week 4)−(level measured at the time of pre-testing)) to determine Δ in level (the amount of change in uric acid level) (mg/dL). […] For each subject, the creatinine level measured at the time of pre-testing was subtracted from the creatinine level measured at the time of testing on week 4 ((level measured at the time of testing on week 4)−(level measured at the time of pre-testing)) to determine Δ in level (the amount of change in creatinine level) (mg/dL). […]

[2] = mice, oral administration, versus mice not administered; cited from earlier work

## C[N+](C)(C)[C@@H](Cc1c[nH]c(=S)[nH]1)C(=O)[O-] [L-ergothioneine]
[1]
  change in BUN level (Δ in BUN): reduced
  change in blood creatinine level (Δ in creatinine): reduced
  change in blood uric acid level (Δ in uric acid): reduced
[2]
  peritesticular fat weight: lower
  triglyceride (neutral fat) level in plasma: lower
